Experimental data taken from PubChem BioAssay (NCI).
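A five-concentration, 48-hour dose response in 96-well plates underlies each endpoint, interpolated linearly between surrounding concentrations. GI50: concentration for 50% inhibition of growth. Definition used: TGI = concentration required for complete inhibition of growth.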

What was measured:
Assay in all cases: DTP human tumour cell line panel, 48 h
[1] = test system: NCI/ADR-RES ovarian
[2] = test system: K-562 leukemia
[3] = test system: SNB-19 CNS
[4] = test system: SF-295 CNS
[5] = test system: A498 renal
[6] = test system: UACC-62 melanoma
[7] = test system: MDA-MB-231 breast
[8] = test system: SF-268 CNS
[9] = test system: HCT-116 colon
[10] = test system: DU-145 prostate
[11] = test system: NCI-H460 lung
[12] = test system: IGROV1 ovarian
[13] = test system: HOP-62 NSCLC
[14] = test system: SR leukemia
[15] = test system: HCC-2998 colon
[16] = test system: SN12C renal
[17] = test system: HCT-15 colon
[18] = test system: NCI-H226 lung
[19] = test system: OVCAR-8 ovarian
[20] = test system: CAKI-1 renal
[21] = test system: SK-MEL-28 melanoma
[22] = test system: SK-MEL-5 melanoma
[23] = test system: HL-60(TB) leukemia
[24] = test system: MOLT-4 leukemia
[25] = test system: SK-MEL-2 melanoma
[26] = test system: NCI-H23 lung
[27] = test system: NCI-H522 lung
[28] = test system: HS 578T breast
[29] = test system: HOP-92 NSCLC
[30] = test system: UO-31 renal
[31] = test system: MCF7 breast
[32] = test system: UACC-257 melanoma
[33] = test system: T-47D breast
[34] = test system: EKVX NSCLC
[35] = test system: ACHN renal
[36] = test system: OVCAR-4 ovarian
[37] = test system: 786-0 renal
[38] = test system: SK-OV-3 ovarian
[39] = test system: RPMI-8226 leukemia
[40] = test system: TK-10 renal
[41] = test system: SW-620 colon
[42] = test system: MDA-MB-435
[43] = test system: A549 NSCLC
[44] = test system: MALME-3M melanoma
[45] = test system: OVCAR-5 ovarian
[46] = test system: M14 melanoma
[47] = test system: U251 CNS
[48] = test system: RXF 393 renal
[49] = test system: KM12 colon
[50] = test system: CCRF-CEM leukemia
[51] = test system: SNB-75 CNS
[52] = test system: COLO 205 colon
[53] = test system: HT29 colon
[54] = test system: SF-539 CNS
[55] = test system: PC-3 prostate

**Q.** `N#Cc1cccc(NC(=O)c2cc(-c3ccc(F)cc3F)ccc2O)c1` was tested. Which GI50 [1] did it give?
**A.** 2.11 µM

**Q.** And the TGI [1]?
**A.** 9.92 µM

**Q.** What about the GI50 [2] of the same molecule?
**A.** 1.51 µM

**Q.** What about the TGI [2] of the same molecule?
**A.** > 100 µM

**Q.** And the GI50 [3]?
**A.** 2.37 µM

**Q.** What about the TGI [3] of the same molecule?
**A.** 14.3 µM

**Q.** What about the GI50 [4] of the same molecule?
**A.** 1.96 µM

**Q.** And the TGI [4]?
**A.** 4.44 µM

**Q.** And the GI50 [5]?
**A.** 0.374 µM

**Q.** What about the TGI [5] of the same molecule?
**A.** 2.12 µM

**Q.** What about the GI50 [6] of the same molecule?
**A.** 0.522 µM

**Q.** What about the TGI [6] of the same molecule?
**A.** 2.7 µM

**Q.** What about the GI50 [7] of the same molecule?
**A.** 2.12 µM

**Q.** What about the TGI [7] of the same molecule?
**A.** 5.93 µM

**Q.** And the GI50 [8]?
**A.** 2.38 µM

**Q.** What about the TGI [8] of the same molecule?
**A.** 20.7 µM

**Q.** And the GI50 [9]?
**A.** 1.89 µM

**Q.** What about the TGI [9] of the same molecule?
**A.** 8.91 µM

**Q.** What about the GI50 [10] of the same molecule?
**A.** 2.63 µM

**Q.** And the TGI [10]?
**A.** > 100 µM

**Q.** And the GI50 [11]?
**A.** 1.42 µM

**Q.** And the TGI [11]?
**A.** 13.3 µM

**Q.** And the GI50 [12]?
**A.** 2.6 µM

**Q.** And the TGI [12]?
**A.** > 100 µM

**Q.** And the GI50 [13]?
**A.** 2.39 µM

**Q.** And the TGI [13]?
**A.** 7.96 µM

**Q.** And the GI50 [14]?
**A.** 2.91 µM

**Q.** What about the TGI [14] of the same molecule?
**A.** 23.2 µM

**Q.** And the GI50 [15]?
**A.** 3.22 µM

**Q.** What about the TGI [15] of the same molecule?
**A.** 12.4 µM

**Q.** And the GI50 [16]?
**A.** 1.44 µM

**Q.** And the TGI [16]?
**A.** 6.46 µM

**Q.** What about the GI50 [17] of the same molecule?
**A.** 1.9 µM

**Q.** And the TGI [17]?
**A.** 6.93 µM

**Q.** And the GI50 [18]?
**A.** 1.86 µM

**Q.** What about the TGI [18] of the same molecule?
**A.** 7.36 µM

**Q.** And the GI50 [19]?
**A.** 2.88 µM

**Q.** And the TGI [19]?
**A.** > 100 µM

**Q.** What about the GI50 [20] of the same molecule?
**A.** 1.31 µM

**Q.** What about the TGI [20] of the same molecule?
**A.** 4.74 µM

**Q.** And the GI50 [21]?
**A.** 1.38 µM

**Q.** And the GI50 [22]?
**A.** 0.507 µM

**Q.** And the TGI [22]?
**A.** 1.94 µM

**Q.** And the GI50 [23]?
**A.** 1.8 µM

**Q.** And the TGI [23]?
**A.** 5.27 µM

**Q.** And the GI50 [24]?
**A.** 2.55 µM

**Q.** And the TGI [24]?
**A.** 8.6 µM

**Q.** And the GI50 [25]?
**A.** 0.768 µM

**Q.** And the TGI [25]?
**A.** 3.85 µM

**Q.** What about the GI50 [26] of the same molecule?
**A.** 1.49 µM

**Q.** What about the TGI [26] of the same molecule?
**A.** 6.23 µM

**Q.** What about the GI50 [27] of the same molecule?
**A.** 0.642 µM

**Q.** And the TGI [27]?
**A.** 10.9 µM

**Q.** And the GI50 [28]?
**A.** 2.02 µM

**Q.** And the TGI [28]?
**A.** 7.21 µM

**Q.** What about the GI50 [29] of the same molecule?
**A.** 0.338 µM

**Q.** What about the TGI [29] of the same molecule?
**A.** 1.93 µM

**Q.** And the GI50 [30]?
**A.** 1.82 µM

**Q.** What about the TGI [30] of the same molecule?
**A.** 9.03 µM

**Q.** What about the GI50 [31] of the same molecule?
**A.** 1.87 µM

**Q.** And the TGI [31]?
**A.** 10.7 µM

**Q.** And the GI50 [32]?
**A.** 0.893 µM

**Q.** What about the TGI [32] of the same molecule?
**A.** 5.32 µM

**Q.** And the GI50 [33]?
**A.** 0.496 µM

**Q.** What about the TGI [33] of the same molecule?
**A.** 6.57 µM

**Q.** And the GI50 [34]?
**A.** 2.68 µM

**Q.** What about the TGI [34] of the same molecule?
**A.** 9.32 µM

**Q.** And the GI50 [35]?
**A.** 2.65 µM

**Q.** And the TGI [35]?
**A.** 10.1 µM

**Q.** And the GI50 [36]?
**A.** 0.899 µM

**Q.** What about the TGI [36] of the same molecule?
**A.** 14.2 µM

**Q.** What about the GI50 [37] of the same molecule?
**A.** 3.06 µM

**Q.** And the TGI [37]?
**A.** 10.7 µM

**Q.** What about the GI50 [38] of the same molecule?
**A.** 2.35 µM

**Q.** What about the TGI [38] of the same molecule?
**A.** 8.88 µM

**Q.** And the GI50 [39]?
**A.** 0.562 µM

**Q.** And the TGI [39]?
**A.** 3.17 µM

**Q.** And the GI50 [40]?
**A.** 3.49 µM

**Q.** And the TGI [40]?
**A.** 15.7 µM

**Q.** And the GI50 [41]?
**A.** 2.99 µM

**Q.** And the TGI [41]?
**A.** 17.1 µM

**Q.** And the GI50 [42]?
**A.** 1.37 µM

**Q.** And the TGI [42]?
**A.** 6.32 µM

**Q.** And the GI50 [43]?
**A.** 3.52 µM

**Q.** What about the TGI [43] of the same molecule?
**A.** > 100 µM

**Q.** What about the GI50 [44] of the same molecule?
**A.** 1.01 µM

**Q.** What about the TGI [44] of the same molecule?
**A.** 4 µM

**Q.** What about the GI50 [45] of the same molecule?
**A.** 3.39 µM

**Q.** And the TGI [45]?
**A.** 30.2 µM

**Q.** And the GI50 [46]?
**A.** 2.25 µM

**Q.** What about the TGI [46] of the same molecule?
**A.** 8.89 µM

**Q.** What about the GI50 [47] of the same molecule?
**A.** 2.56 µM

**Q.** And the TGI [47]?
**A.** 25.5 µM

**Q.** What about the GI50 [48] of the same molecule?
**A.** 2.25 µM

**Q.** And the TGI [48]?
**A.** 6.6 µM

**Q.** And the GI50 [49]?
**A.** 2.72 µM

**Q.** And the TGI [49]?
**A.** 8.24 µM

**Q.** What about the GI50 [50] of the same molecule?
**A.** 3.25 µM

**Q.** And the TGI [50]?
**A.** 19.3 µM

**Q.** And the GI50 [51]?
**A.** 1.29 µM

**Q.** What about the TGI [51] of the same molecule?
**A.** 3.88 µM

**Q.** And the GI50 [52]?
**A.** 11.5 µM

**Q.** And the TGI [52]?
**A.** 25.1 µM

**Q.** What about the GI50 [53] of the same molecule?
**A.** 5.71 µM

**Q.** And the TGI [53]?
**A.** > 100 µM

**Q.** What about the GI50 [54] of the same molecule?
**A.** 2.54 µM

**Q.** And the GI50 [55]?
**A.** 2.89 µM

**Q.** And the TGI [55]?
**A.** 17.9 µM
